Test results reported in ChEMBL document CHEMBL1201862, “PubChem BioAssay data set” (2004).
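Five concentrations, 48 hours, 96-well plates. GI50: concentration for 50% inhibition of growth.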 Activity calls are given as the source filed them. Rule as the data show it: active = GI50 up to about 1.1 µM and inactive = higher.

How the values were obtained:
Experiment in all cases: growth of human tumour cells (NCI), 48 h
NCI-H226 = system: NCI-H226
SR = system: SR
A498 = system: A498
RPMI-8226 = system: RPMI-8226
SK-MEL-28 = system: SK-MEL-28
DU-145 = system: DU-145
SF-295 = system: SF-295
SNB-75 = system: SNB-75
NCI-H522 = system: NCI-H522
SK-MEL-5 = system: SK-MEL-5
K562 = system: K562
NCI-H23 = system: NCI-H23
HT-29 = system: HT-29
NCI/ADR-RES = system: NCI/ADR-RES
LOX IMVI = system: LOX IMVI
RXF 393 = system: RXF 393
SN12C = system: SN12C
HCT-15 = system: HCT-15
M14 = system: M14
CCRF-CEM = system: CCRF-CEM

Row | Structure (SMILES) | GI50 (NCI-H226) | GI50 (SR) | GI50 (A498) | GI50 (RPMI-8226) | GI50 (SK-MEL-28) | GI50 (DU-145) | GI50 (SF-295) | GI50 (SNB-75) | GI50 (NCI-H522) | GI50 (SK-MEL-5) | GI50 (K562) | GI50 (NCI-H23) | GI50 (HT-29) | GI50 (NCI/ADR-RES) | GI50 (LOX IMVI) | GI50 (RXF 393) | GI50 (SN12C) | GI50 (HCT-15) [µM] | GI50 (M14) | GI50 (CCRF-CEM)
1 | OC1C2CN3CCN(C2)CC1(c1ccccc1)C3 (stereo unspecified) | > 100 µM (inactive) | > 100 µM (inactive) | > 100 µM (inactive) | > 100 µM (inactive) | > 100 µM (inactive) | > 100 µM (inactive) | > 100 µM (inactive) | > 100 µM (inactive) | > 100 µM (inactive) | > 100 µM (inactive) | > 100 µM (inactive) | > 100 µM (inactive) | > 100 µM (inactive) | > 100 µM (inactive) | > 100 µM (inactive) | > 100 µM (inactive) | > 100 µM (inactive) | – | – | –
2 | Oc1ccc(/C=N/c2ccccc2O)cc1 | 94.6 µM (inactive) | 48.6 µM (inactive) | > 100 µM (inactive) | 22.5 µM (inactive) | > 100 µM (inactive) | 17 µM (inactive) | 52.2 µM (inactive) | > 100 µM (inactive) | 29.3 µM (inactive) | 20.2 µM (inactive) | 24.7 µM (inactive) | 30.3 µM (inactive) | 69 µM (inactive) | 75 µM (inactive) | 26.1 µM (inactive) | > 100 µM (inactive) | > 100 µM (inactive) | 21.3 | 35.5 µM (inactive) | 44.7 µM (inactive)
3 | Cc1ccc2c(c1)C(=O)C1(C2)Cc2ccc(C)cc2C1=O | – | > 100 µM (inactive) | > 100 µM (inactive) | > 100 µM (inactive) | – | > 100 µM (inactive) | > 100 µM (inactive) | > 100 µM (inactive) | > 100 µM (inactive) | > 100 µM (inactive) | > 100 µM (inactive) | > 100 µM (inactive) | > 100 µM (inactive) | > 100 µM (inactive) | > 100 µM (inactive) | > 100 µM (inactive) | – | > 100 | > 100 µM (inactive) | > 100 µM (inactive)
4 | COc1cc(OC)cc(Oc2nc3ccc(C(F)(F)F)cc3nc2-c2ccccc2)c1 | > 100 µM (inactive) | > 100 µM (inactive) | > 100 µM (inactive) | 52.5 µM (inactive) | > 100 µM (inactive) | > 100 µM (inactive) | > 100 µM (inactive) | > 100 µM (inactive) | > 100 µM (inactive) | > 100 µM (inactive) | > 100 µM (inactive) | > 100 µM (inactive) | 60 µM (inactive) | > 100 µM (inactive) | > 100 µM (inactive) | > 100 µM (inactive) | – | > 100 | – | > 100 µM (inactive)
5 | COc1ccc(/C=C/C(=N/NC(=O)N/N=C(/C=C/c2ccc(OC)cc2)C(C)(C)CN2CCCCC2)C(C)(C)CN2CCCCC2)cc1 | 1.5 µM (inactive) | 0.234 µM (active) | 2.22 µM (inactive) | 1.69 µM (inactive) | 1.56 µM (inactive) | > 10 µM (inactive) | 1.87 µM (inactive) | 1.37 µM (inactive) | 2.07 µM (inactive) | 1.63 µM (inactive) | 0.467 µM (active) | 3.03 µM (inactive) | 1.58 µM (inactive) | 1.97 µM (inactive) | 1.37 µM (inactive) | 1.35 µM (inactive) | 2.7 µM (inactive) | 3.12 | 1.71 µM (inactive) | 1.27 µM (inactive)
6 | CC(C)(C)O/N=C/c1cc(NC(=S)c2ccsc2)ccc1Cl | 14 µM (inactive) | 3.36 µM (inactive) | 10.5 µM (inactive) | 2.75 µM (inactive) | 16.7 µM (inactive) | 5.37 µM (inactive) | 11.6 µM (inactive) | 23.6 µM (inactive) | 13.3 µM (inactive) | 3.99 µM (inactive) | – | 7.41 µM (inactive) | 13.3 µM (inactive) | 11.8 µM (inactive) | 16 µM (inactive) | 14.1 µM (inactive) | 17.1 µM (inactive) | 14.6 | 16.7 µM (inactive) | 10.7 µM (inactive)
7 | COC(=O)CNS(=O)(=O)c1ccc(-c2c3nc(c(-c4ccc(S(=O)(=O)NCC(=O)OC)cc4)c4ccc([nH]4)c(-c4ccc(S(=O)(=O)NCC(=O)OC)cc4)c4nc(c(-c5ccc(S(=O)(=O)NCC(=O)OC)cc5)c5ccc2[nH]5)C=C4)C=C3)cc1 | – | > 100 µM (inactive) | 64.9 µM (inactive) | > 100 µM (inactive) | > 100 µM (inactive) | > 100 µM (inactive) | > 100 µM (inactive) | > 100 µM (inactive) | > 100 µM (inactive) | > 100 µM (inactive) | > 100 µM (inactive) | > 100 µM (inactive) | > 100 µM (inactive) | > 100 µM (inactive) | > 100 µM (inactive) | > 100 µM (inactive) | > 100 µM (inactive) | > 100 | 18.7 µM (inactive) | > 100 µM (inactive)
8 | CC(=O)Oc1cc(/C=C/c2ccc(O)cc2)cc(OC(C)=O)c1 | 24.7 µM (inactive) | 17.3 µM (inactive) | 25.4 µM (inactive) | 4.7 µM (inactive) | 66.5 µM (inactive) | 27.2 µM (inactive) | 28.8 µM (inactive) | 22.1 µM (inactive) | 26 µM (inactive) | 14.5 µM (inactive) | 20.7 µM (inactive) | 11.7 µM (inactive) | 19.3 µM (inactive) | 16.3 µM (inactive) | – | 58.1 µM (inactive) | 19 µM (inactive) | 26.5 | 64.6 µM (inactive) | –
9 | OC1(C(O)(c2ccc(-c3ccccc3)cc2)c2ccc(-c3ccccc3)cc2)CCCCC1 | > 100 µM (inactive) | 28.6 µM (inactive) | > 100 µM (inactive) | > 100 µM (inactive) | > 100 µM (inactive) | > 100 µM (inactive) | > 100 µM (inactive) | > 100 µM (inactive) | > 100 µM (inactive) | 63.4 µM (inactive) | > 100 µM (inactive) | > 100 µM (inactive) | 87.9 µM (inactive) | > 100 µM (inactive) | > 100 µM (inactive) | > 100 µM (inactive) | > 100 µM (inactive) | 23 | > 100 µM (inactive) | –
10 | O=C(CCc1cccc(O)c1)NCCCNC(=O)CCc1cccc(O)c1 | – | > 100 µM (inactive) | > 100 µM (inactive) | > 100 µM (inactive) | > 100 µM (inactive) | > 100 µM (inactive) | > 100 µM (inactive) | – | > 100 µM (inactive) | > 100 µM (inactive) | > 100 µM (inactive) | > 100 µM (inactive) | > 100 µM (inactive) | > 100 µM (inactive) | > 100 µM (inactive) | > 100 µM (inactive) | > 100 µM (inactive) | > 100 | > 100 µM (inactive) | > 100 µM (inactive)
11 | Sc1ncnc2c1ncn2Cc1ccco1 | > 100 µM (inactive) | > 100 µM (inactive) | > 100 µM (inactive) | > 100 µM (inactive) | > 100 µM (inactive) | > 100 µM (inactive) | > 100 µM (inactive) | > 100 µM (inactive) | > 100 µM (inactive) | > 100 µM (inactive) | > 100 µM (inactive) | > 100 µM (inactive) | > 100 µM (inactive) | > 100 µM (inactive) | > 100 µM (inactive) | > 100 µM (inactive) | > 100 µM (inactive) | > 100 | > 100 µM (inactive) | –
12 | N#C/C(=C1/c2cc([N+](=O)[O-])ccc2-c2c1cc([N+](=O)[O-])cc2[N+](=O)[O-])N1CCCCC1 | > 100 µM (inactive) | 1.34 µM (inactive) | > 100 µM (inactive) | 17 µM (inactive) | > 100 µM (inactive) | 38.5 µM (inactive) | > 100 µM (inactive) | 16.9 µM (inactive) | 46.6 µM (inactive) | 91.4 µM (inactive) | > 100 µM (inactive) | 55.7 µM (inactive) | > 100 µM (inactive) | 51.3 µM (inactive) | – | 34.6 µM (inactive) | > 100 µM (inactive) | > 100 | 86.9 µM (inactive) | > 100 µM (inactive)
13 | C=CC(C)CCC(C/C=C(\C)CCCC(C)C)C(=C)CCCC(C)C (stereo unspecified) | > 100 µM (inactive) | > 100 µM (inactive) | > 100 µM (inactive) | > 100 µM (inactive) | > 100 µM (inactive) | > 100 µM (inactive) | > 100 µM (inactive) | > 100 µM (inactive) | > 100 µM (inactive) | > 100 µM (inactive) | > 100 µM (inactive) | > 100 µM (inactive) | – | > 100 µM (inactive) | > 100 µM (inactive) | > 100 µM (inactive) | > 100 µM (inactive) | > 100 | > 100 µM (inactive) | > 100 µM (inactive)
14 | CC(=O)OC1C(O)COC(O[C@H]2CC[C@]34C[C@]35CC[C@]3(C)C([C@@]6(C)CC[C@@H](C(C)(C)O)O6)[C@@H](O)C[C@@]3(C)C5C[C@H](OC3OCC(O)C(O)C3O)[C@H]4C2(C)C)C1OC1OCC(O)C(O)C1O (stereo partly specified) | > 100 µM (inactive) | > 100 µM (inactive) | > 100 µM (inactive) | > 100 µM (inactive) | > 100 µM (inactive) | > 100 µM (inactive) | > 100 µM (inactive) | > 100 µM (inactive) | > 100 µM (inactive) | > 100 µM (inactive) | > 100 µM (inactive) | > 100 µM (inactive) | > 100 µM (inactive) | > 100 µM (inactive) | > 100 µM (inactive) | > 86.3 µM (inactive) | > 100 µM (inactive) | > 100 | > 100 µM (inactive) | –
